Results as given in patent US20160115540A1, “PRODRUGS AND DRUGS” (Biogen MA Inc., priority 2013, published 2016).
Counter-ions that a name gives are not always drawn.

Tested on: spleen
Assay: Transcriptional profiling, multi-dosing regimen, naïve mice: spleen
Type: in vivo
Details: for Number of differentially expressed genes identified: Spleen: Table 13: Naïve, Single Dose (so in the source), 12 h after last dosing
Experimental: In vivo, DMF is rapidly metabolized to monomethyl fumarate (MMF). […] Animals were exposed to CO2 and whole blood collected via cardiac puncture. Two 100 μl aliquots of whole blood were collected in 1.5 mL microcentrifuge tubes and snap frozen in liquid nitrogen. Peripheral (liver, spleen, kidney and jejunum) and CNS brain (cerebellum, hippocampus, striatum and cortex) tissues were harvested and snap frozen in liquid nitrogen, with special care taken to collect tissues of similar size and from the same location. All samples were stored at -80° C. until RNA extraction was conducted. For RNA preparation, frozen tissues were placed in 2 mL RNAse-free 96-well blocks with 1.5 mL QIAzol Lysis Reagent (QIAgen) and a 3.2 mm stainless steel bead (BioSpec Products, Bartlesville, Okla.). Tissues were disrupted for four cycles of 45 seconds in a Mini-Beadbeater (Biospec Products). RNA was extracted in chloroform and the aqueous phase was mixed with an equal volume of 70% ethanol. Extracted RNA was applied to RNeasy 96 plates and purified by the spin method according to the manufacturer's protocol (RNeasy 96 Universal Tissue Protocol, QIAgen, Hilden Germany). […] Two micrograms of biotin labeled […] probe were hybridized to Affymetrix GeneChip Affymetrix HT_MG-430_PM plate arrays with modified conditions as described in […] et al. Washing and staining of the hybridized arrays were completed as described in the GeneChip Expression analysis technical manual for HT plate arrays using the Genechip® Array Station (Affymetrix, Santa Clara, Calif.) with modifications as described in […] et al. The processed GeneChip® plate arrays were scanned using GeneTitan scanner (Affymetrix, Santa Clara, Calif.). Affymetrix scans were subject to quality control (QC) measures. These tests included a visual inspection of the distribution of raw signal intensities and an assessment of RNA degradation, relative log expression (RLE), and normalized unsealed standard error (NUSE). All sample scans that passed these QC metrics were included in the analysis. All CEL files were subjected to GC-content-based Robust Multi-array Average (GCRMA) normalization (version 2.20.0) (Irizarry R A, et al. Nucleic Acids Res 2003; 31:e15; Li C, et al. […] Stat Appl Genet Mol Biol 2004; 3:Article3). […] Springer Science+Business Media 2005). Changes in gene expression were studied by applying a linear modeling approach to fit gene expression levels according to the defined groups of samples (e.g. DMF-, MMF-, and Vehicle-treated animals) and Bayesian posterior error analysis as implemented by Smyth (Smyth G K. Stat Appl Genet Mol Biol 2004; 3:Article3). The comparisons considered included: DMF-vs-MMF, DMF-vs-Vehicle, and MMF-vs-Vehicle. […] Very few DEGs are observed in blood and tissues derived from the central nervous system (brain, cerebellum, cortex, striatum, and spinal cord).

[1] = SPLEEN, 100DMF-vs-100MMF, naïve multidose
[2] = SPLEEN, 100DMF-vs-Veh, naïve multidose
[3] = SPLEEN, 100MMF-vs-Veh, naïve multidose

COC(=O)/C=C/C(=O)OC [DMF, dimethyl fumarate]
FC 4931431B13Rik (1430416_PM_at) [1]: 2.18 | FC AU015536 (1445025_PM_at) [1]: 1.55 | FC Adap2 (1425639_PM_at) [1]: 1.60 | FC Agtr1a (1436739_PM_at) [1]: 1.61 | FC Ano1 (1426571_PM_at) [1]: 1.70 | FC Ano1 (1459713_PM_s_at) [1]: 1.55 | FC Apoc1 (1417561_PM_at) [1]: 1.74 | FC Ccbe1 (1439327_PM_at) [1]: 2.07 | FC Ccdc80 (1424187_PM_at) [1]: 1.74 | FC Ccl3 (1419561_PM_at) [1]: 1.81 | FC Ccl6 (1420249_PM_s_at) [1]: 1.88 | FC Ccr3 (1422957_PM_at) [1]: 2.25 | FC Cd300ld (1424832_PM_at) [1]: 1.82 | FC Cdr2l (1445027_PM_at) [1]: 1.57 | FC Clec4n (1419627_PM_s_at) [1]: 1.52 | FC Clec4n (1425951_PM_a_at) [1]: 1.83 | FC Dmd (1417307_PM_at) [1]: 1.59 | FC Ear1 (1421802_PM_at) [1]: 3.89 | FC Ear1 /// Ear12 /// Ear2 /// Ear3 (1422411_PM_s_at) [1]: 1.79 | FC Ear2 (1449846_PM_at) [1]: 1.51 | FC Ear3 (1422412_PM_x_at) [1]: 1.80 | FC Emr4 (1424998_PM_at) [1]: 1.77 | FC Ercc61 (1424766_PM_at) [1]: −1.66 | FC Fam63a (1438321_PM_x_at) [1]: −1.52 | FC Fcgr1 (1417876_PM_at) [1]: 1.61 | FC Fcna (1418243_PM_at) [1]: 1.57 | FC Hs6st2 (1450047_PM_at) [1]: 1.64 | FC Kcnj16 (1435094_PM_at) [1]: 1.69 | FC Klrb1a (1450296_PM_at) [1]: 1.78 | FC Lphn3 (1458742_PM_at) [1]: 1.60 | FC Ncr1 (1422089_PM_at) [1]: 1.54 | FC Niacr1 (1419721_PM_at) [1]: 1.65 | FC P2ry12 (1431724_PM_a_at) [1]: 1.66 | FC Pla2g7 (1430700_PM_a_at) [1]: 1.51 | FC Ptplad2 (1450967_PM_at) [1]: 1.56 | FC Rab31 (1431691_PM_a_at) [1]: 1.73 | FC Rnf144b (1425282_PM_at) [1]: 1.86 | FC Skiv2l (1422584_PM_at) [1]: −1.52 | FC St18 (1455123_PM_at) [1]: 1.75 | FC Sult1a1 (1427345_PM_a_at) [1]: 1.51 | FC Tmem26 (1434583_PM_at) [1]: 1.57 | FC Ubn2 (1430056_PM_at) [1]: −1.62 | FC Vcam1 (1415989_PM_at) [1]: 1.50 | FC Vcam1 (1436003_PM_at) [1]: 1.62 | FC Vcam1 (1451314_PM_a_at) [1]: 1.61 | FC Vnn3 (1420723_PM_at) [1]: 1.54 | FC probe 1420250_PM_at (no gene symbol) [1]: 1.50 | FC probe 1421534_PM_at (no gene symbol) [1]: 1.57 | FC probe 1429277_PM_at (no gene symbol) [1]: 1.59 | FC probe 1442323_PM_at (no gene symbol) [1]: −1.55 | FC probe 1444189_PM_at (no gene symbol) [1]: 1.71 | FC probe 1445379_PM_at (no gene symbol) [1]: −1.51 | FC Aox1 (1419435_PM_at) [2]: 1.66 | FC Gsta3 (1423436_PM_at) [2]: 1.86 | FC Gstm1 (1416416_PM_x_at) [2]: 1.57 | FC Gstm1 (1448330_PM_at) [2]: 1.61 | Number of differentially expressed genes identified: Spleen (100 mpk DMF-vs-90 mpk MMF): 52 | Number of differentially expressed genes identified: Spleen (100 mpk DMF-vs-Vehicle): 4 | CCR3, Klrb1c, NCR1 and CCL3L1 expression (downstream of IL2), DMF vs MMF (spleen, multi-dosed naïve mice): up-regulated | FCGR1A, ST18, CCL3L1 and VCAM1 expression (downstream of NFkB), DMF vs MMF (spleen, multi-dosed naïve mice): up-regulated

COC(=O)/C=C/C(=O)O [MMF, monomethyl fumarate]
FC 4931431B13Rik (1430416_PM_at) [3]: −1.94 | FC 5430404G13Rik (1453540_PM_at) [3]: −1.55 | FC 5730403M16Rik (1434343_PM_at) [3]: 1.51 | FC Ccdc80 (1424187_PM_at) [3]: −1.64 | FC Ccl3 (1419561_PM_at) [3]: −1.82 | FC Ccr3 (1422957_PM_at) [3]: −2.37 | FC Cd300ld (1424832_PM_at) [3]: −1.85 | FC Clec4a2 (1422013_PM_at) [3]: −1.50 | FC Clec4a2 (1425406_PM_at) [3]: −1.64 | FC Clec4a3 (1429954_PM_at) [3]: −1.58 | FC Clec4n (1425951_PM_a_at) [3]: −1.81 | FC Csmd3 (1438272_PM_at) [3]: −1.80 | FC Defb1 (1419491_PM_at) [3]: 1.55 | FC Dmd (1417307_PM_at) [3]: −1.56 | FC Ear3 (1422412_PM_x_at) [3]: −1.73 | FC Emr4 (1424998_PM_at) [3]: −1.75 | FC Fam63a (1438321_PM_x_at) [3]: 1.54 | FC Fcgr1 (1417876_PM_at) [3]: −1.84 | FC Fgfrl1 /// LOC100046239 (1447878_PM_s_at) [3]: 1.53 | FC Gzma (1417898_PM_a_at) [3]: −1.64 | FC Hpgds (1421492_PM_at) [3]: −1.55 | FC Hs6st2 (1450047_PM_at) [3]: −1.75 | FC Iigp1 (1419043_PM_a_at) [3]: −1.72 | FC Lrp4 (1426288_PM_at) [3]: −1.51 | FC Lrrc50 (1421974_PM_at) [3]: 1.53 | FC Niacr1 (1419721_PM_at) [3]: −1.91 | FC Ptplad2 (1450967_PM_at) [3]: −1.55 | FC Rab31 (1431691_PM_a_at) [3]: −1.62 | FC Rnf144b (1425282_PM_at) [3]: −1.71 | FC Stfa2l1 (1442339_PM_at) [3]: −2.07 | FC Stx1a (1437390_PM_x_at) [3]: 1.53 | FC Tmem26 (1434583_PM_at) [3]: −1.67 | FC Ubn2 (1430056_PM_at) [3]: 1.64 | FC Ucp2 (1444566_PM_at) [3]: 1.54 | FC Vnn3 (1420723_PM_at) [3]: −1.59 | FC probe 1429277_PM_at (no gene symbol) [3]: −1.60 | FC probe 1431225_PM_at (no gene symbol) [3]: 1.58 | FC probe 1439831_PM_at (no gene symbol) [3]: −1.51 | FC probe 1442323_PM_at (no gene symbol) [3]: 1.51 | FC probe 1447204_PM_at (no gene symbol) [3]: −1.95 | FC probe 1449653_PM_at (no gene symbol) [3]: −1.57 | FC probe 1457306_PM_at (no gene symbol) [3]: 2.12 | Number of differentially expressed genes identified: Spleen (90 mpk MMF-vs-Vehicle): 42
